Source: patent US20120129892A1, “NOVEL PHARMACEUTICALLY ACCEPTABLE SALTS OF 4-(1H-IMIDAZOL-4-[…])PYRIDINE AND THEIR THERAPEUTICAL USES” (BIOPROJET, priority 2009, published 2012)
Structures can show the parent of a compound that is named as a salt. Where two headings read alike, the source gives them in different places.

What was measured:
[1] = target: H3R in brain (Mus musculus, UniProt P58406); conditions: mice, oral, immethridine base and salts at 0.3 mg/kg, imetit: maximal reduction
[2] = target: human HMT (Homo sapiens, UniProt P50135); assay: tele-methylation by HMT, cytosol of fresh human hepatocytes, Lineweaver-Burk analysis; conditions: pH 7.4, 20 μM (S)-adenosyl methionine
[3] = hygroscopy: water uptake in a water-saturated atmosphere at room temperature; type: physicochemical; conditions: a few days in water-saturated atmosphere at room temperature, listed as immethridine dioxalate
[4] = stability on heating at 80° C. during one week, HPLC analysis
[5] = target: recombinant human cytochrome P450 3A4 (Homo sapiens, UniProt P08684); assay: inhibition of recombinant human cytochrome P450 3A4; type: in vitro ADME; conditions: read-out: IC50 at 3A4 isoform
From the text: (§1) These values are over 3 orders of magnitude higher than the expected plasma or tissue concentrations at therapeutic dosage.

[6] = general tolerance in rodents; type: in vivo; conditions: doses as high as 100 mg/kg
Description: (§2) Accordingly, rats treated orally for 18 days by 20 mg/kg o.d.

[7] = tested on: human CYP 450 isoforms (3A4, 2C9, 2E1, 2B6) and UGTs; assay: induction of CYP 450 isoforms and UGTs in human hepatocytes; type: in vitro ADME; conditions: concentrations over 3 orders of magnitude higher than expected therapeutic concentrations
[8] = withdrawal symptoms after interruption of repeated Zolpidem treatment in rats; type: in vivo; conditions: 18 days 20 mg/kg o.d. oral Zolpidem followed by 0.3 mg/kg, p.o.
Description: as §2

[9] = target: recombinant human cytochrome P450 2D6 (Homo sapiens, UniProt P10635); assay: inhibition of recombinant human cytochrome P450 2D6; type: in vitro ADME; conditions: read-out: IC50 at 2D6 isoform
From the text: as §1

[10] = target: recombinant human cytochrome P450 2C9 (Homo sapiens, UniProt P11712); assay: inhibition of recombinant human cytochrome P450 2C9; type: in vitro ADME; conditions: read-out: IC50 at 2C9 isoform
From the text: as §1

[11] = target: T1, H3R (Rattus norvegicus, UniProt Q9QYN8); conditions: rats, intraperitoneal, doses as high as 10 mg/kg necessary (Celanire et al.); cited from earlier work
T1 construct: host or cells: living rats (brain)

[12] = tested on: H3R in brain; assay: reduction of brain tele methylhistamine levels after oral dosing (ED50)
[13] = target: T2, hERG potassium channel (Homo sapiens, UniProt Q12809); assay: potassium hERG current, functional patch clamp assay in HEK-293 cells; conditions: concentrations up to 10 μM
[14] = target: T3, recombinant hH3R (Homo sapiens, UniProt Q9Y5N1); assay: [35S]GTPγS binding activation on recombinant hH3R expressed in HEK 293 cells; type: biochemical
T3 construct: expressed in transfected cells; host or cells: HEK 293 cells

[15] = AUCs of unchanged drug and tele methylated derivative in mouse brain and blood; type: in vivo; conditions: 1 mg/kg, p.o.
[16] = AUCs of unchanged drug and metabolite in rat brain and blood; conditions: Sprague-Dawley, po, 1 mg/kg
[17] = target: human H3R (Homo sapiens, UniProt Q9Y5N1); assay: β arrestin translocation; type: cell-based
[18] = sleep EEG recording in rats (24-hr recordings); type: in vivo; conditions: for tolerance to sleep-promoting / hypnotic effect: repeated o.d. administration over several days
From the text: While the sleep-promoting activity of several other H3R agonists has been previously described (Lin et al., Brain Res., 1990, 523, 325-330; Monti et al., Neuropsychopharmacology, 1996, 15, 31-35), much higher dosages—by two to three orders of magnitude—were required to obtain this effect.
This is in contrast with the long-lasting disorders of circadian rhythms, namely the relative insomnia, which occur at the interruption of a repeated treatment with benzodiazepines or imidazopyridines such as Zolpidem.

[19] = target: T2, hERG potassium channel; assay: [3H]dofetidide binding assay, HEK-293 cells stably expressing hERG; conditions: concentrations up to 10 μM

H3R in brain (Mus musculus, UniProt P58406), sequence (P58406 whole entry): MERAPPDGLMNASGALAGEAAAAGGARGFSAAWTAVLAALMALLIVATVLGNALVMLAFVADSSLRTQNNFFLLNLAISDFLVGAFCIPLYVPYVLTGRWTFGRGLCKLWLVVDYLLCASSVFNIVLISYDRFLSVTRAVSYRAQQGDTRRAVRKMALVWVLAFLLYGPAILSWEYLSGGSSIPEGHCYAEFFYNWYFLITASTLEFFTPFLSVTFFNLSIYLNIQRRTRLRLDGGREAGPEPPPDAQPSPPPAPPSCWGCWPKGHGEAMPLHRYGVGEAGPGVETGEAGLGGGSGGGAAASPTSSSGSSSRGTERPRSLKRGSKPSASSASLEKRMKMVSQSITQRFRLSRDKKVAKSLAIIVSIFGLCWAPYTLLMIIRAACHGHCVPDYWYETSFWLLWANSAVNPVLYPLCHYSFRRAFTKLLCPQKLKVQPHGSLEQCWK
human HMT, sequence (P50135 whole entry): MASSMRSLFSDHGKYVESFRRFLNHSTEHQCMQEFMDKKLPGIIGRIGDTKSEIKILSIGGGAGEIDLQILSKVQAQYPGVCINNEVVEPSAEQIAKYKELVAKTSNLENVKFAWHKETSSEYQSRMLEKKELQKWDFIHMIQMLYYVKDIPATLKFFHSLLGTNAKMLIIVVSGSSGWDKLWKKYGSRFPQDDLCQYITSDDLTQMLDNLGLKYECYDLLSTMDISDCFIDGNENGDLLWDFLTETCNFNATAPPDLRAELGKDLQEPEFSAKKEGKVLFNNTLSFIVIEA
T2 sequence (Q12809 whole entry): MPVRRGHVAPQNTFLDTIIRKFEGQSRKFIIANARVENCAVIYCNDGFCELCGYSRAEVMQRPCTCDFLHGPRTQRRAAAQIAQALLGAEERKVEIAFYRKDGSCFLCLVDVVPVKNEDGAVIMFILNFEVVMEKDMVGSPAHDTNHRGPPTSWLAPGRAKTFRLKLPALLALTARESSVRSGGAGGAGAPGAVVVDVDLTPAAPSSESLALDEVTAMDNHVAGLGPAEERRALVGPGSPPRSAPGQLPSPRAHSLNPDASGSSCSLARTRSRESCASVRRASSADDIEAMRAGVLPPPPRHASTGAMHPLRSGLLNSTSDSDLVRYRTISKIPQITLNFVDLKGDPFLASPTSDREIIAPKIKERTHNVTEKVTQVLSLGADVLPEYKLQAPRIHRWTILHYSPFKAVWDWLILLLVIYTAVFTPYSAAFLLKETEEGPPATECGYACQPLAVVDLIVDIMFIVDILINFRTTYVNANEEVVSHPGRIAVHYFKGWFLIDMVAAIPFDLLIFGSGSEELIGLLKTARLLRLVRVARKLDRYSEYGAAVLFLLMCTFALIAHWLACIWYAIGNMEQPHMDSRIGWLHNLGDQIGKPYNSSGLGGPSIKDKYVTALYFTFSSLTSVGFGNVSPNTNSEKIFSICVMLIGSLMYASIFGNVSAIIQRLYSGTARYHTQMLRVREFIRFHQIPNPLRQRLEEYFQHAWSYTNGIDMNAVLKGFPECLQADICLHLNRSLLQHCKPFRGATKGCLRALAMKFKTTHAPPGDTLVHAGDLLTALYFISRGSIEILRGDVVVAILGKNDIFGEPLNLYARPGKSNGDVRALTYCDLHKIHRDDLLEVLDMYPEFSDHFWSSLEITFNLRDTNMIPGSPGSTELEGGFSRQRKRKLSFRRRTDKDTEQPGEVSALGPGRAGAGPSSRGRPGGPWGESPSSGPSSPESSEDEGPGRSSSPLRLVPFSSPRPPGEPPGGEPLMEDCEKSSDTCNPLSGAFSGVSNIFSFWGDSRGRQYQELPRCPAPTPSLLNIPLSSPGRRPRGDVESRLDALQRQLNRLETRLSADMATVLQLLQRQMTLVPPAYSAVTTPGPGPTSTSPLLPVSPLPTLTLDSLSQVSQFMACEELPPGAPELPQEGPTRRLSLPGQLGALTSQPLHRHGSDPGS
human H3R, sequence (Q9Y5N1 whole entry): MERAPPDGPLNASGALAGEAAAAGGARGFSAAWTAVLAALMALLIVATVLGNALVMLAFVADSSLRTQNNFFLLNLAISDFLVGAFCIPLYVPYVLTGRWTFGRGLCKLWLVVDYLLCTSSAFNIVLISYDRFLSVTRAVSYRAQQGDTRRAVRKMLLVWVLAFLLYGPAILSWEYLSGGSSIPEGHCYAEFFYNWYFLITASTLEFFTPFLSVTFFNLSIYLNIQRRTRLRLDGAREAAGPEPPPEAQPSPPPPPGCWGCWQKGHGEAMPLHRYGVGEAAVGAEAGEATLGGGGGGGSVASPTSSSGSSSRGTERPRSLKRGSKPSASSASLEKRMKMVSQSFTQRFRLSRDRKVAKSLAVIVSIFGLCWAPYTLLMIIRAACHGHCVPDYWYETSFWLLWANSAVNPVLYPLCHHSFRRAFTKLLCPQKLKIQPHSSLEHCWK
T3 sequence (Q9Y5N1 whole entry): as above
recombinant human cytochrome P450 2C9, sequence (P11712 whole entry, canonical isoform): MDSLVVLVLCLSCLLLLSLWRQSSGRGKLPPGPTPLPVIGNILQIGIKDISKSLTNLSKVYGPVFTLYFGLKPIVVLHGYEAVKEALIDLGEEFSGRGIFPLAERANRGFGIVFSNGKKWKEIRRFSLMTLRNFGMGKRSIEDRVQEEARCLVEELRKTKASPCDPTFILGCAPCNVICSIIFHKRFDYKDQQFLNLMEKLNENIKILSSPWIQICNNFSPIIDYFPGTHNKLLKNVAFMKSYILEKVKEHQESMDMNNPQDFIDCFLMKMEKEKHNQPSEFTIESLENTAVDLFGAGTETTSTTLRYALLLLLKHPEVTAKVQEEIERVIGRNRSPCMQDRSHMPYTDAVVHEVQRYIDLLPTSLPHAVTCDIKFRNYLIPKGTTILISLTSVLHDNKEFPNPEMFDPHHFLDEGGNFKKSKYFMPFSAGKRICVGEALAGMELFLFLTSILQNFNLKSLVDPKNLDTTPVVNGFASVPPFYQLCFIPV
T1 sequence (Q9QYN8 whole entry): as the sequence (P58406 whole entry) above, with A15T, T286A, G290A, H387R, V389I counted along it
recombinant human cytochrome P450 3A4, sequence (P08684 whole entry, canonical isoform): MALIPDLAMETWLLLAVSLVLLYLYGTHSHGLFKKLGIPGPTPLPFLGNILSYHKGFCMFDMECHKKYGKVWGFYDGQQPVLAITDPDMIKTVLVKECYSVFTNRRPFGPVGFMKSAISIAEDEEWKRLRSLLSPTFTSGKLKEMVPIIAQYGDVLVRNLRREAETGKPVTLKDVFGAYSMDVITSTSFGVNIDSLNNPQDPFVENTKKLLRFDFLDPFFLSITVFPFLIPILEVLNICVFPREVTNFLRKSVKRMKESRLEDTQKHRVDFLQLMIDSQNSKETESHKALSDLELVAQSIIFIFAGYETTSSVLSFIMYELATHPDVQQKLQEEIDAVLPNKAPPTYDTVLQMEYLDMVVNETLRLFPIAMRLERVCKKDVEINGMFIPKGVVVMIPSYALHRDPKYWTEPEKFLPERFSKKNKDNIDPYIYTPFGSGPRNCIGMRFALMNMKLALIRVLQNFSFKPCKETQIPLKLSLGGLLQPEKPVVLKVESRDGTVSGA
recombinant human cytochrome P450 2D6, sequence (P10635 whole entry, canonical isoform): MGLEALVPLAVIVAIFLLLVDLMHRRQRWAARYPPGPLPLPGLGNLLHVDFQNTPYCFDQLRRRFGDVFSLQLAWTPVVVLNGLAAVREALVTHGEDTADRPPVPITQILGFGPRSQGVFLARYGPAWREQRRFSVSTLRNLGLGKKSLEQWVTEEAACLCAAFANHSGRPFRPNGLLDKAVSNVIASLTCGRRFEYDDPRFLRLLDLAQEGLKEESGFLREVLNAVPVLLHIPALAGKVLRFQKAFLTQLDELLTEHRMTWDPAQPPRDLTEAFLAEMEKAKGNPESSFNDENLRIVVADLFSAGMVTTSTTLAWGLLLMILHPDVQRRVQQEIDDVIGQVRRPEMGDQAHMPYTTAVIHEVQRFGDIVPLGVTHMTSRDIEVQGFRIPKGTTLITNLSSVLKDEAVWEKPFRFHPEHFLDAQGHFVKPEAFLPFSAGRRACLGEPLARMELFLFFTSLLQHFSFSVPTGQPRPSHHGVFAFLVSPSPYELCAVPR

**Q.** With c1cc(Cc2c[nH]cn2)ccn1 [BP1.5375 (alpha keto-glutarate salt)] as the compound, how does the “t-methylhistamine brain level variation vs. control, mean (%)” value ([1]; listed as Immethridine alpha-ketoglutarate, 0.3 mg/kg) read?
**A.** −46.1%

**Q.** Which Vm [2] does the source give for c1cc(Cc2c[nH]cn2)ccn1 [BP1.5375 (dibromhydrate salt)] here?
**A.** 0.004 µM/min

**Q.** With c1cc(Cc2cnc[nH]2)ccn1 [BP1.5375 (dioxalate salt), 4-(1H-imidazol-4-ylmethyl)-pyridine dioxalate] as the compound, how does the “water uptake, % of weight” value [3] read?
**A.** 13-15%

**Q.** What about the stability when heated ([4]; listed as immethridine dioxalate, dioxalate) of the same compound?
**A.** no apparent degradation

**Q.** Which Vm [2] does the source give for c1cc(Cc2c[nH]cn2)ccn1 [BP1.5375 (ditoluenesulfonate salt)] here?
**A.** 0.004 µM/min

**Q.** What about the “t-methylhistamine brain level variation vs. control, mean (%)” value ([1]; listed as Immethridine di p-toluene sulfonate, 0.3 mg/kg) of the same compound?
**A.** −41.6%

**Q.** Which results are given for c1cc(Cc2cnc[nH]2)ccn1 [BP1.5375, 4-(1H-imidazol-4-yl-methyl)-pyridine]?
**A.** IC50 [5]: 29.3 µM; apparent toxicity sign [6]: does not induce any apparent toxicity sign; induction of CYP 450 isoforms (3A4, 2C9, 2E1, 2B6) and UGTs [7]: not induced; occurrence of withdrawal symptoms after Zolpidem interruption [8]: prevents the occurrence of withdrawal symptoms; IC50 [9]: ≥ 100 µM; IC50 [10]: 3.1 µM; decrease of histamine in brain [11]: modestly decrease histamine in brain; ED50, reduction of levels of tele methylhistamine in brain ([12]; given orally to rats or mice): ~30 micrograms/kg; tele methylhistamine response upon repeated administration ([12]; repeated administration over 7 days): maintained; inhibition of potassium hERG current [13]: not to inhibit; EC50 [14]: ~1 nM; intrinsic activity compared with histamine ([14]; [35S]GTPγS binding, hH3R): 0.75; ratio of brain/blood AUCs [15]: close to unit; Kp [16]: 2.6; stability when heated ([4]; listed as immethridine): darkens; EC50 [17]: ~17 nM; intrinsic activity compared to histamine ([17]; β arrestin translocation): 0.5; rebound / sleep pattern upon interruption of repeated treatment ([18]; after interruption of 6-day treatment with 0.3 mg/kg, p.o.): does not give rise to a rebound phenomenon; tolerance to sleep-promoting / hypnotic effect [18]: does not diminish; duration of deep SWS (slow wave sleep) period ([18]; same very low dosages, administered 30 min before start of light-on period): enhanced significantly; inhibition of [3H]dofetidide binding [19]: not to inhibit; t-methylhistamine brain level variation vs. control, mean (%) ([1]; 0.3 mg/kg): −42.1%

**Q.** For c1cc(Cc2cnc[nH]2)ccn1 [Immethridine dihydrochloride], which “t-methylhistamine brain level variation vs. control, mean (%)” value [1] is on record?
**A.** −37.0%

**Q.** For CS(=O)(=O)O.CS(=O)(=O)O.c1cc(Cc2c[nH]cn2)ccn1 [Immethridine methane sulfonate], which “t-methylhistamine brain level variation vs. control, mean (%)” value [1] is on record?
**A.** −40.0%

**Q.** For Cc1ccc(-c2nc3ccc(C)cn3c2CC(=O)N(C)C)cc1 [Zolpidem, reference compound], which “withdrawal symptoms upon interruption of repeated treatment” value ([18]; after interruption of 15-day treatment with 20 mg/kg, p.o.) is on record?
**A.** increases in sleep onset latency, decrease in deep sleep

**Q.** And the “tolerance to sleep-promoting / hypnotic effect” value [18]?
**A.** rapid development of tolerance
